Results published in ChEMBL document CHEMBL1201862, “PubChem BioAssay data set” (2004).
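In this assay, cells in 96-well plates receive the compound at five concentrations for 48 hours. Endpoints are linearly interpolated between the surrounding concentrations. At the GI50, growth is halved.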 Active and inactive are the calls of the source. Cut-off read from the data, not from the text of the source: active = GI50 up to about 1.1 µM and inactive = higher.

Key:
Experiment in all cases: NCI anticancer screen, dose series, 48 h
K562 = system: K562
UACC-257 = system: UACC-257
OVCAR-5 = system: OVCAR-5
LOX IMVI = system: LOX IMVI
MDA-MB-231 = system: MDA-MB-231
SK-MEL-28 = system: SK-MEL-28
TK-10 = system: TK-10
RXF 393 = system: RXF 393
SNB-75 = system: SNB-75
IGROV-1 = system: IGROV-1
OVCAR-8 = system: OVCAR-8
PC-3 = system: PC-3
MDA-MB-435 = system: MDA-MB-435
NCI-H522 = system: NCI-H522
CCRF-CEM = system: CCRF-CEM
MOLT-4 = system: MOLT-4
SF-295 = system: SF-295
SK-MEL-2 = system: SK-MEL-2
HOP-62 = system: HOP-62
HCC 2998 = system: HCC 2998

Row | SMILES | GI50 (K562) | GI50 (UACC-257) | GI50 (OVCAR-5) | GI50 (LOX IMVI) | GI50 (MDA-MB-231) | GI50 (SK-MEL-28) | GI50 (TK-10) | GI50 (RXF 393) | GI50 (SNB-75) | GI50 (IGROV-1) | GI50 (OVCAR-8) | GI50 (PC-3) | GI50 (MDA-MB-435) | GI50 (NCI-H522) | GI50 (CCRF-CEM) | GI50 (MOLT-4) | GI50 (SF-295) | GI50 (SK-MEL-2) | GI50 (HOP-62) | GI50 (HCC 2998)
1 | COc1cccc(NC(=O)CC(=O)n2nc(-c3ccccc3)c(/N=N/c3ccc(Cl)cc3)c2-c2ccccc2)c1 | 12.4 µM (inactive) | 24.3 µM (inactive) | 64.9 µM (inactive) | 13.2 µM (inactive) | 21.3 µM (inactive) | 25.5 µM (inactive) | 64.1 µM (inactive) | 23 µM (inactive) | 42.8 µM (inactive) | 7.55 µM (inactive) | 15.8 µM (inactive) | 27.9 µM (inactive) | 38.7 µM (inactive) | 19.4 µM (inactive) | 6.92 µM (inactive) | 9.84 µM (inactive) | 12.9 µM (inactive) | 21.5 µM (inactive) | 15.2 µM (inactive) | 17.2 µM (inactive)
2 | N#CC1C(=O)NC23CCCCC2C1c1ccccc1O3 (stereo not given) | > 100 µM (inactive) | > 100 µM (inactive) | > 100 µM (inactive) | > 100 µM (inactive) | > 100 µM (inactive) | 53.5 µM (inactive) | > 100 µM (inactive) | > 100 µM (inactive) | > 100 µM (inactive) | > 100 µM (inactive) | > 100 µM (inactive) | > 100 µM (inactive) | > 100 µM (inactive) | > 100 µM (inactive) | 74.8 µM (inactive) | > 100 µM (inactive) | > 100 µM (inactive) | > 100 µM (inactive) | > 100 µM (inactive) | > 100 µM (inactive)
3 | CN1CCCC2C(c3ccccc3)C(C3=NCCCC3)C(c3ccccc3)CC21 (stereo not given) | 17.2 µM (inactive) | 19.1 µM (inactive) | > 100 µM (inactive) | 19.5 µM (inactive) | 51.2 µM (inactive) | 16.2 µM (inactive) | > 100 µM (inactive) | 23.4 µM (inactive) | 13.6 µM (inactive) | 50 µM (inactive) | 39.5 µM (inactive) | 44.7 µM (inactive) | 19.5 µM (inactive) | 17 µM (inactive) | 35.2 µM (inactive) | 31.3 µM (inactive) | 49.2 µM (inactive) | > 100 µM (inactive) | > 100 µM (inactive) | 15.6 µM (inactive)
4 | CC1(C)OC[C@@H](/C=C\CCO[Si](c2ccccc2)(c2ccccc2)C(C)(C)C)N1C(=O)c1ccccc1 | 3.1 µM (inactive) | 3.49 µM (inactive) | 16.3 µM (inactive) | 13.6 µM (inactive) | 10.9 µM (inactive) | 30.3 µM (inactive) | 11.2 µM (inactive) | 6.84 µM (inactive) | > 100 µM (inactive) | 28.6 µM (inactive) | 15.8 µM (inactive) | 4.07 µM (inactive) | 13.2 µM (inactive) | 3.61 µM (inactive) | 6.21 µM (inactive) | 3.13 µM (inactive) | 13.1 µM (inactive) | 5.24 µM (inactive) | 25.4 µM (inactive) | 7.46 µM (inactive)
5 | O=c1c2ccccc2n2c(S)nnc2n1-c1ccccc1 | > 100 µM (inactive) | > 100 µM (inactive) | > 100 µM (inactive) | > 100 µM (inactive) | > 100 µM (inactive) | > 100 µM (inactive) | > 100 µM (inactive) | > 100 µM (inactive) | 21.1 µM (inactive) | > 100 µM (inactive) | > 100 µM (inactive) | > 100 µM (inactive) | > 100 µM (inactive) | > 100 µM (inactive) | > 100 µM (inactive) | > 100 µM (inactive) | > 100 µM (inactive) | > 100 µM (inactive) | > 100 µM (inactive) | > 100 µM (inactive)
6 | Cc1ccc(/N=N/c2ccc(O)c(CN(C)C)c2)cc1 | 20 µM (inactive) | 17.8 µM (inactive) | 14.4 µM (inactive) | 14 µM (inactive) | 20.6 µM (inactive) | 20 µM (inactive) | 21.7 µM (inactive) | 4.66 µM (inactive) | 21.6 µM (inactive) | 15.1 µM (inactive) | 21.4 µM (inactive) | 19.4 µM (inactive) | 17.3 µM (inactive) | 16.7 µM (inactive) | 22.8 µM (inactive) | 19.2 µM (inactive) | 18.1 µM (inactive) | 15.2 µM (inactive) | 12.6 µM (inactive) | 15.5 µM (inactive)
7 | Cc1nc(Nc2ccccc2Cl)sc1C(=O)CC(=O)C(=O)Nc1c(Cl)cccc1Cl | 41.8 µM (inactive) | 44.4 µM (inactive) | 24.9 µM (inactive) | 27.4 µM (inactive) | 13.6 µM (inactive) | 26.2 µM (inactive) | > 100 µM (inactive) | 23.4 µM (inactive) | 24.4 µM (inactive) | 15.8 µM (inactive) | 29.4 µM (inactive) | 27.3 µM (inactive) | 22.9 µM (inactive) | 19.3 µM (inactive) | 28.4 µM (inactive) | 24 µM (inactive) | 27.5 µM (inactive) | 16.1 µM (inactive) | 22.8 µM (inactive) | 39.5 µM (inactive)
8 | COC(=O)[C@@H](NC(=O)[C@H](N)Cc1ccc(N(CCCl)CCCl)cc1)C(C)C | 12.9 µM (inactive) | 6.37 µM (inactive) | 36.5 µM (inactive) | 5.97 µM (inactive) | 26.1 µM (inactive) | 11.9 µM (inactive) | 22.4 µM (inactive) | 12 µM (inactive) | 11.1 µM (inactive) | 15.9 µM (inactive) | 7.06 µM (inactive) | 21.7 µM (inactive) | 19 µM (inactive) | 5.92 µM (inactive) | 0.435 µM (active) | 0.0204 µM (active) | 18.7 µM (inactive) | 28.9 µM (inactive) | 19.9 µM (inactive) | 5.55 µM (inactive)
9 | COC(=O)C1(Cc2ccccc2)Cc2cc3c(cc2C1)CCC3 | 17 µM (inactive) | 29.2 µM (inactive) | 27.7 µM (inactive) | 18.6 µM (inactive) | 45.3 µM (inactive) | 41.1 µM (inactive) | 68.7 µM (inactive) | 20.1 µM (inactive) | 20.3 µM (inactive) | 24.5 µM (inactive) | 25.3 µM (inactive) | 24 µM (inactive) | 12.4 µM (inactive) | 22.2 µM (inactive) | 14.9 µM (inactive) | 15.5 µM (inactive) | 37.5 µM (inactive) | 18.5 µM (inactive) | 50.2 µM (inactive) | 34.1 µM (inactive)
10 | C1=CC2C=CC(C=C1)P2c1ccccc1 (stereo not given) | > 100 µM (inactive) | > 100 µM (inactive) | > 100 µM (inactive) | > 100 µM (inactive) | > 100 µM (inactive) | > 100 µM (inactive) | > 100 µM (inactive) | > 100 µM (inactive) | > 100 µM (inactive) | > 100 µM (inactive) | > 100 µM (inactive) | > 100 µM (inactive) | > 100 µM (inactive) | > 100 µM (inactive) | > 100 µM (inactive) | > 100 µM (inactive) | > 100 µM (inactive) | > 100 µM (inactive) | > 100 µM (inactive) | 0.0175 µM (active)
11 | CC1=NN(C(=O)CC(=O)Nc2cccc(C)c2)C(=O)C1/N=N\c1ccc(S(=O)(=O)c2ccc(/N=N/C3C(=O)N(C(=O)CC(=O)Nc4cccc(C)c4)N=C3C)cc2)cc1 (stereo not given) | > 100 µM (inactive) | > 100 µM (inactive) | > 100 µM (inactive) | > 100 µM (inactive) | > 100 µM (inactive) | > 100 µM (inactive) | > 100 µM (inactive) | > 100 µM (inactive) | > 100 µM (inactive) | > 100 µM (inactive) | > 100 µM (inactive) | > 100 µM (inactive) | > 100 µM (inactive) | > 100 µM (inactive) | > 100 µM (inactive) | > 100 µM (inactive) | > 100 µM (inactive) | > 100 µM (inactive) | > 100 µM (inactive) | > 100 µM (inactive)
12 | O=C1CCN2c3ccccc3[C@H]3Cc4cccc(c4[C@@H]2C3)CCO1 | 21.8 µM (inactive) | 29.4 µM (inactive) | > 100 µM (inactive) | 34.6 µM (inactive) | 83 µM (inactive) | 56.4 µM (inactive) | 65.6 µM (inactive) | 47.4 µM (inactive) | 27.4 µM (inactive) | 22 µM (inactive) | 31.7 µM (inactive) | 32 µM (inactive) | 40.4 µM (inactive) | 28.4 µM (inactive) | 28.8 µM (inactive) | 20.3 µM (inactive) | 32.4 µM (inactive) | 38 µM (inactive) | 56.2 µM (inactive) | > 100 µM (inactive)
13 | CC(C)=C1C2CC3(C)CCC2(C)CCC13.CC1=CCC2C3(C)CCC2(C(C)C)C1C3 (stereo not given) | 31.4 µM (inactive) | 27.2 µM (inactive) | 18.9 µM (inactive) | 28.8 µM (inactive) | 22 µM (inactive) | 34.2 µM (inactive) | 25.5 µM (inactive) | 17.8 µM (inactive) | 23.2 µM (inactive) | 16.5 µM (inactive) | 17.3 µM (inactive) | 39.3 µM (inactive) | 28.9 µM (inactive) | 20.8 µM (inactive) | 24.5 µM (inactive) | 31.9 µM (inactive) | 20 µM (inactive) | 17.5 µM (inactive) | 22.3 µM (inactive) | 23.1 µM (inactive)
14 | COc1ccc(C(C)NNC(=O)c2ccncc2)c(OC)c1 (stereo not given) | 93.1 µM (inactive) | > 100 µM (inactive) | > 100 µM (inactive) | > 100 µM (inactive) | > 100 µM (inactive) | > 100 µM (inactive) | > 100 µM (inactive) | > 100 µM (inactive) | > 100 µM (inactive) | > 100 µM (inactive) | > 100 µM (inactive) | > 100 µM (inactive) | > 100 µM (inactive) | > 100 µM (inactive) | > 100 µM (inactive) | > 100 µM (inactive) | > 100 µM (inactive) | > 100 µM (inactive) | > 100 µM (inactive) | > 100 µM (inactive)
